Test results from patent US20240246911A1, “NOVEL T[…] METHODS OF TREATING MOOD DISORDERS” (GILGAMESH PHARMACEUTICALS INC., priority 2021, published 2024).
Where a name gives a salt, the structure may show the parent alone. Read-outs that look alike come from different tables or passages of the source.

Key:
5-HT2A receptor [1] = molecular target: T1, 5-HT2A receptor (Homo sapiens (Human), UniProt P28223); test: FLIPR Ca2+ flux functional assay, agonist activity at 5-HT2A; type: cell-based
Experimental: (§1) Functional Assays at 5-HT2A, 5-HT2B, and 5-HT1A Receptors. Agonist activity at 5-HT2A, 5-HT2B, and 5-HTIA receptors was determined using a FLIPR Ca^2− flux assay at WuXi AppTec (Hong Kong) Limited according to their standard protocols. Briefly, stably transfected cells expressing the receptor of interest (HEK293 for 5-HT2A and 5-HT2B; CHO cells for 5-HT1A) were grown and plated in a 384-well plate and incubated at 37° C. and 5% CO2 overnight. A solution of 250 mM probenecid in 1 mL FLIPR assay buffer was prepared fresh. This was combined with a fluorescent dye (Fluo-4 Direct™) to make a final assay concentration of 2.5 mM. Compounds were diluted 1:3.16 for 10 points and 750 nL was added to a 384-well compound plate using ECHO along with 30 μL of assay buffer. The fluorescent dye was then added to the assay plate along with assay buffer to a final volume of 40 μL. The cell plate was incubated for 50 min at 37° C.and 5% CO2 and placed into the FLIPR Tetra along with the compound plate. 10 μL of references and compounds were then transferred from the compound plate into the cell plate and the fluorescent signal was read.

5-HT2B receptor = 5-HT2B receptor (Homo sapiens (Human), UniProt P41595); test: FLIPR Ca2+ flux functional assay, agonist activity at 5-HT2B; type: cell-based; details: for Emax: HEK293 stably transfected cells, Ca2+ flux
Sequence of 5-HT2B receptor (P41595 whole entry, looked up): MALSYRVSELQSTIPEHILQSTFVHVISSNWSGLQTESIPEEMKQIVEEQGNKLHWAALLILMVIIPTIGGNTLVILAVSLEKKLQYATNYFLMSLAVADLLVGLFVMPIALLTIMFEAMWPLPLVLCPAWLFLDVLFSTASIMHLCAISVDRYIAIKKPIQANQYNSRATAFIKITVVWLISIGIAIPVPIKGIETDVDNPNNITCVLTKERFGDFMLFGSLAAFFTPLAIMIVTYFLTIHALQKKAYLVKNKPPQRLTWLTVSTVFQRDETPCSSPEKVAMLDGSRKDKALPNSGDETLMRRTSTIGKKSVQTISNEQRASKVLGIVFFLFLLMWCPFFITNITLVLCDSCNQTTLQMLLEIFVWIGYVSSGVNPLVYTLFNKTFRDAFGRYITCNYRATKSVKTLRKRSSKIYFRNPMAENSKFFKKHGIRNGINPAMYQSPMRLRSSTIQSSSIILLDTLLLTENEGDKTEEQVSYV
Experimental: as §1

5-HT1A receptor = 5-HT1A receptor (Homo sapiens (Human), UniProt P08908); test: FLIPR Ca2+ flux functional assay, agonist activity at 5-HT1A; type: cell-based; details: for Emax: read-out: 5-HT1A Emax
Experimental: as §1

5-HT2A receptor [2] = molecular target: T1, 5-HT2A receptor; test: 5-HT2A receptor radioligand binding with [3H]ketanserin; details: HEK293 stable cell line, 1 nM [3H]ketanserin, 1 h, 25° C.
rat synaptosomes = test: Synaptosome 5-HT release assay; type: biochemical; details: for EC50: rat synaptosomes preloaded with [3H]5-HT, 10 mins
Experimental: Synaptosome 5-HT Release Assay. Synaptosome release assays were conducted according to modifications of previously described procedures (Partilla et al. (2016). Interrogating the Activity of Ligands at Monoamine Transporters in Rat Brain Synaptosomes. In Neurotransmitter Transporters (pp. 41-52). Springer.). Briefly, synaptosomes were prepared from rat brains. Male
Sprague-Dawley rats were rendered unconscious with CO2 and their brains were immediately removed. The cerebella were discarded and the whole brains (minus striatum) were placed in ice-cold 0.32 M sucrose (10 mL per brain) and gently homogenized by hand. The homogenate of each brain was centrifuged at 1,000×g at 4° C.for 10 mins and the resulting supernatant was diluted with ice-cold 0.32 M sucrose to a total volume of 10 mL to provide the synaptosome solution. […] The incubations were allowed to reach equilibrium for 2 h at 25° C. For the release reactions, 425 μL of preloaded synaptosomes were added to test tubes containing 75 μL of test drugs diluted in KPB containing 1 mg/mL BSA. After 10 mins, the release reaction was stopped using a cell harvester by rapid vacuum filtration over GF/B filter paper presoaked in wash buffer (10 mM Tris-HCl, pH 7.4, 150 mM NaCl) and the filters were washed with additional wash buffer. Filters were dried for 1 h at 60° C.and retained radioactivity was quantified using a MicroBeta 2 liquid scintillation counter. The amount of retained radioactivity was inversely proportional to the extent of release.

[3] = system: rat forced swim test (FST); test: Forced swim test in rats; type: in vivo; details: s.c., 23.5-h pre-treatment time
Experimental: Compound 1 is tested for antidepressant-like activity in the rat forced swim test (FST). The compound induces antidepressant-like effects with a 23.5-h pre-treatment time.
Animals. Male Sprague Dawley rats, aged 9-10 weeks, are used in this experiment. Animals are housed in groups of 2 under controlled temperature (22+3°C.) and relative humidity (30-70%) conditions, with 12-hour light/dark cycles, and with ad libitum food and water. This study is carried out in strict accordance with the requirements of the Committee for the Purpose of Control and Supervision of Experiments on Animals (CPCSEA), India. All efforts are made to minimize suffering.
Drugs and Drug Administration. Test compound, saline vehicle, and the positive control desipramine are administered subcutaneously (s.c.), with doses calculated based on the free base. Normal saline is used as the vehicle (or acidified saline in the case of free bases). All compounds are administered at a volume of 5 mL/kg. Test compound and vehicle are administered 0.5 h after the start of the training swim (Swim 1) and 23.5 h before the test swim (Swim 2). […]
Behavioral scoring is conducted by observers who are blind to the treatment groups. Animals are continuously observed during Swim 2 and the total time spent engaging in the following behaviors is recorded: immobile, swimming, and climbing. […]

[4] = HEK293 stably transfected cells, Ca2+ flux

Structure (SMILES) | EC50 (5-HT2A receptor [1]) | agonist activity at the 5-HT2A receptor (in words) (5-HT2A receptor [1]; Ca2+ flux) | agonist type at the 5-HT2A receptor (in words) (5-HT2A receptor [1]; Ca2+ flux) | Emax (5-HT2A receptor [1]; [4]) | EC50 (5-HT2B receptor) | Emax (5-HT2B receptor) | EC50 (5-HT1A receptor) | Emax (5-HT1A receptor) | Ki (5-HT2A receptor [2]) | 5-HT releaser potency compared to 5-MeO-DMT (in words) (rat synaptosomes; rat synaptosomes) | EC50 (rat synaptosomes) | % Release @ Max Dose (10 μM) (rat synaptosomes; rat synaptosomes) | immobility time relative to vehicle control [3] | EC50 (5-HT2A receptor [1]; HEK293 stably transfected cells, Ca2+ flux, read-out: 5-HT2A EC50)
CN(C)CCc1c[nH]c2ccc(OC(F)(F)F)cc12 [Compound 1, N,N-dimethyl-2-(5-(trifluoromethoxy)-1/-indol-3-yl)ethan-1-amine hydrochloride] | 127 nM | potent agonist activity | partial agonist rather than a full agonist | 78.9% | 762 nM | 19.6% | 6330 nM | 81.8% | 890 nM | much more potent releaser of 5-HT | 192 nM | 58.77% | reduces immobility time relative to vehicle control in a dose-dependent manner | –
COc1ccc2[nH]cc(CCN(C)C)c2c1 [Compound 5-MeO-DMT, 5-methoxy-N,N-dimethyltryptamine, reference compound] | – | – | – | 106% | – | 17.6% | – | 100% | – | – | 3950 nM | 54.63% | – | –
CN(C)CCc1c[nH]c2ccccc12 [DMT, N,N-dimethyltryptamine, reference compound] | – | – | – | 93.4% | – | 42.8% | – | 70.2% | 416 nM | – | 80.8 nM | 80.77% | – | 22.2 nM
